# Source: PMC11211886 (Frontiers in Pharmacology, 2024)
# “And” between values parts separate entries of the source, which are not always exact repeats. Equal entries are not always repeated.
# Assays:
# [1] = biological target: T1, OAT3 (Homo sapiens, UniProt Q8TCC7); test: OAT3 inhibition, estrone 3-sulfate uptake in transfected HEK293 cells
# T1 sequence (Q8TCC7 1-542): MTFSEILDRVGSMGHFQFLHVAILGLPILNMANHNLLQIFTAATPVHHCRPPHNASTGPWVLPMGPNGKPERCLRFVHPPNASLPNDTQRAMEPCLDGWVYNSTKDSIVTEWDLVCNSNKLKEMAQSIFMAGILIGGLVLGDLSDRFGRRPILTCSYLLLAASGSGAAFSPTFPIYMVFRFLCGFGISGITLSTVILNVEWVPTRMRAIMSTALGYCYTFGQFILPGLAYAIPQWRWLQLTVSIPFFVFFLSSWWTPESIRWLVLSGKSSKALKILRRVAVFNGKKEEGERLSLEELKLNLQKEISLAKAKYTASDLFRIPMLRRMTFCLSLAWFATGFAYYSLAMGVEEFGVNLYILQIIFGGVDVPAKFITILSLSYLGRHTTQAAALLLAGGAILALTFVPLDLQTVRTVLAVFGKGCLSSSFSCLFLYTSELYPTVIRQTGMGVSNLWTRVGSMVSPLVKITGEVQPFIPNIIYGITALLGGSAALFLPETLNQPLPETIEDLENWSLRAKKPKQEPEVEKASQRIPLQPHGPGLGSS
# Experimental: (§1) The pre-incubation solutions were removed, and incubation solutions containing the inhibitors and probe substrates (or transport buffer containing an equal volume of vehicle control and probe substrates) were added and incubated at 37°C for 2 min (5 min for OATP1B3). The probe substrate for OAT1 was 4-aminohippuric acid (10 μM), for OAT3 was estrone 3-sulfate (10 μM), for OCT2 was metformin (100 μM), for OATP1B1 was β-estradiol 17-(β-D-glucuronide) (5 μM), for OATP1B3 was β-estradiol 17-(β-D-glucuronide) (10 μM), and for MATE1 and MATE2-K was tetraethylammonium (10 μM). After incubation, cells were washed three times with ice-cold transport buffer (25 mM HEPES, pH 7.4, pH 8.0 for overexpressing MATE1 and MATE2-K HEK293 cells) and lysed in distilled water. The concentrations of probe substrates were determined by LC-MS/MS, and a BCA Kit (Solarbio ®Life Sciences, Beijing, China) was used to determine the protein content in the cell lysate.
# (§2) where C is the concentration of the drug in the cell lysate (nM), P is the protein concentration of the cell lysate (mg/mL), and T is the incubation time (minute). Uptake ratetest compound is the uptake rate of the substrate in the presence of the test compound. Uptake ratevehicle control is the uptake rate of the substrate in the presence of the vehicle control. Uptake ratepassive is the uptake rate of the substrate in the presence of the positive inhibitor at the top test concentration.
# [2] = Excretion/mass balance of [14C] amdizalisib in BDI and BDC rats; type: in vivo, SD rat; conditions: for Cumulative recovery of radioactivity, Bile / Cumulative recovery of radioactivity, Cage washing / Cumulative recovery of radioactivity, Feces / Cumulative recovery of radioactivity, Total recovery / Cumulative recovery of radioactivity, Urine: PO 5 mg/100 μCi/kg; for unchanged drug recovered in bile / unchanged drug recovered in feces / unchanged drug recovered in urine: % of administered dose
# Experimental: Rats were divided into seven groups according to the sampling time points, with six rats (male: female = 1: 1) in each group, except that Group 1 h used three male rats and Group 2 h and Group 72 h used three female rats, respectively. […] Plasma and tissue samples were collected at 0.5, 1, 6, 24, and 48 h after dosing for male rats and at 0.5, 2, 6, 24, 48, and 72 h after dosing for female rats. […] After blood collection, the rats were sacrificed, and 18 tissues, namely, brain, breast, skin, fat, testis, ovary, bladder, pancreas, skeletal muscle, heart, lung, kidney, liver, stomach, small intestine, colon, spleen, and spinal cord, were removed from the rats at designated time points. These tissues were washed with saline and dried with filter paper. Aliquots of tissues were accurately weighed and then homogenized in 50% (v/v) methanol/water (10 mL/1 g tissue). […] Twelve rats (207–277 g) were divided into the bile-duct cannulation (BDC) group and the bile-duct intact (BDI) group, with six rats (male: female = 1:1) in each group. […] Urine and feces were collected at pre-dose (0) and 24 h through 168 h post-dose (the first 24 h interval split into 0–8 and 8–24 h for urine) for BDI rats. For BDC rats, urine and feces were collected at pre-dose (0) and 72 h post-dose (the first 24 h interval split into 0–8 and 8–24 h for urine), and bile was collected at pre-dose (0), 0–4, 4–8, 8–24, 24–48, and 48–72 h post-dose. Cage-washing fluids were collected at 24 h intervals until the last sampling time point for both groups. Another BDI rat was orally administered a blank vehicle (0.5% CMC-Na, 0.5 g/100 mL), and urine and feces were collected 24 h post-dose. The weight of the collected samples was recorded. Samples were stored in a −20°C freezer until analysis.
# For the determination of drug-derived radioactivity in the excretion study in SD rats, urine (0.1 g), bile (0.025 g), and cage wash samples (1 g) were mixed well with scintillation solution (5 mL for urine and cage wash samples; 10 mL for bile samples) and directly analyzed by a liquid scintillation counter (LSC, Perkin Elmer, Waltham, MA, United States). An appropriate amount of isopropanol: water (1:1, v/v) was added to the feces samples and thoroughly homogenized. Pooled fecal homogenate (0.3 g) was combusted in a Sample Oxidizer 501 (RJ Harvey Instrument, Tappan, NY, USA), and the generated ^14CO2 was trapped in a 15 mL scintillation solution and further analyzed for radioactivity by LSC using a Tri-Carb 3110 TR counter (Perkin Elmer, Waltham, MA, United States). The radioactive concentrations of urine, bile, feces, and cage washings were calculated with the counted disintegration per minute (DPM). The percentage of administered dose recovered (% dose recovered) was calculated using the following equation: % dose recovered=Total radioactivity DPM in sample/ radioactivity DPM in dosing formulation×100.
# [3] = biological target: T2, MATE1 (Homo sapiens, UniProt Q96FL8); test: MATE1 inhibition, tetraethylammonium uptake in transfected HEK293 cells
# T2 sequence (Q96FL8 1-570): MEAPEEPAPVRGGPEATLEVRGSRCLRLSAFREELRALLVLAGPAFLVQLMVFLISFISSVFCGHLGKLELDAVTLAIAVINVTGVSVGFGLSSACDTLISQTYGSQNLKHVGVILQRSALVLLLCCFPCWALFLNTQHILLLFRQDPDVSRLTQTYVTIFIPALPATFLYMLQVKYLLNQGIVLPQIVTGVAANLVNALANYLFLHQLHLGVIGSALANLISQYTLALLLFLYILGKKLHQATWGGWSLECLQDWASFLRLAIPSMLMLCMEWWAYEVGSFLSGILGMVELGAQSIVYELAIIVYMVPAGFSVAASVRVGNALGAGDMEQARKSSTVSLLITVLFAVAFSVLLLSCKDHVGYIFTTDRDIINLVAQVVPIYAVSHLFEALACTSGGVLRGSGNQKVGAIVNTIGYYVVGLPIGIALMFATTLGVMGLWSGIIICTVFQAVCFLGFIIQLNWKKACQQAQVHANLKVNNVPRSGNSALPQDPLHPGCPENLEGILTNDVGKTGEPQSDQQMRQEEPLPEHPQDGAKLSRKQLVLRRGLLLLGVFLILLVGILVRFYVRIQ
# Experimental: as §1, §2
# [4] = biological target: MATE2-K (Homo sapiens, UniProt Q86VL8); test: MATE2-K inhibition, tetraethylammonium uptake in transfected HEK293 cells
# Chain of MATE2-K (Q86VL8 1-566 isoform Q86VL8-3): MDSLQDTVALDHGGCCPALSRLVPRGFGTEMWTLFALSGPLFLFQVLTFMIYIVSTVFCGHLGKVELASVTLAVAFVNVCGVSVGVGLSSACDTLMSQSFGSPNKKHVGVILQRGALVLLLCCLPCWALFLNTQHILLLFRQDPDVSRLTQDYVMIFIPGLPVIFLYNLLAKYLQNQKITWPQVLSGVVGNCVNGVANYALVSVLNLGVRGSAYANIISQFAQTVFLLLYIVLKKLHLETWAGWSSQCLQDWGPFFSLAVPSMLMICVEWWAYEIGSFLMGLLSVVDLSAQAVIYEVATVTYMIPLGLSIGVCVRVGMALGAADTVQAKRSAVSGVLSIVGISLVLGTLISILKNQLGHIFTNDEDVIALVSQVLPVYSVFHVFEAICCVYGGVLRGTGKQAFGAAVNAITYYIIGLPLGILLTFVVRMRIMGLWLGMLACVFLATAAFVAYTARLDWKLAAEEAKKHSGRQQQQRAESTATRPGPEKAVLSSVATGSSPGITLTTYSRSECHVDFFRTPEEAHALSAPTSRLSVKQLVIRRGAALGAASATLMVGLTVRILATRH
# Experimental: as §1, §2
# [5] = BDC rat, 0–72 h, female (n = 3)
# [6] = BDC rat, 0–72 h, male and female (n = 6)
# [7] = BDI rat, 0–168 h, female (n = 3)
# [8] = BDI rat, 0–168 h, male and female (n = 6)
compound,measurement,setting,value
"CCCN(CCC)S(=O)(=O)c1ccc(C(=O)O)cc1 [Probenecid, reference compound]",Percentage transported,"[1]; OAT3, compound 100 μM",0.00%
same,Uptake rate,"[1]; OAT3, compound 100 μM",19.5±2.26 pmol/mg protein/min
same,"inhibition at 2 min, 100 µM","[1]; human, pH 7.4",100%
[^14C] amdizalisib,"Cumulative recovery of radioactivity, Bile",[2]; [5],49.81 ± 2.07%
same,"Cumulative recovery of radioactivity, Cage washing",[2]; [5],2.24 ± 1.90%
same,"Cumulative recovery of radioactivity, Feces",[2]; [5],19.81 ± 4.98%
same,"Cumulative recovery of radioactivity, Total recovery",[2]; [5],90.31 ± 0.91%
same,"Cumulative recovery of radioactivity, Urine",[2]; [5],18.45 ± 4.01%
same,"Cumulative recovery of radioactivity, Bile","[2]; BDC rat, 0–72 h, male (n = 3)",58.17 ± 4.68%
same,"Cumulative recovery of radioactivity, Cage washing","[2]; BDC rat, 0–72 h, male (n = 3)",0.89 ± 0.37%
same,"Cumulative recovery of radioactivity, Feces","[2]; BDC rat, 0–72 h, male (n = 3)",8.98 ± 2.64%
same,"Cumulative recovery of radioactivity, Total recovery","[2]; BDC rat, 0–72 h, male (n = 3)",91.99 ± 1.88%
same,"Cumulative recovery of radioactivity, Urine","[2]; BDC rat, 0–72 h, male (n = 3)",23.96 ± 8.70%
same,"Cumulative recovery of radioactivity, Bile",[2]; [6],53.99 ± 5.61%
same,"Cumulative recovery of radioactivity, Cage washing",[2]; [6],1.57 ± 1.43%
same,"Cumulative recovery of radioactivity, Feces",[2]; [6],14.40 ± 6.92%
same,"Cumulative recovery of radioactivity, Total recovery",[2]; [6],91.15% and 91.15 ± 1.61%
same,"Cumulative recovery of radioactivity, Urine",[2]; [6],21.20 ± 6.77%
same,fraction of the oral dose absorbed (bile + urine radioactivity),"[2]; BDC rats, 0–72 h, PO 5 mg/kg",at least 75.19%
same,"Cumulative recovery of radioactivity, Cage washing",[2]; [7],4.72 ± 2.41%
same,"Cumulative recovery of radioactivity, Feces",[2]; [7],71.15 ± 0.22%
same,"Cumulative recovery of radioactivity, Total recovery",[2]; [7],91.59 ± 0.97%
same,"Cumulative recovery of radioactivity, Urine",[2]; [7],15.72 ± 2.62%
same,"Cumulative recovery of radioactivity, Cage washing","[2]; BDI rat, 0–168 h, male (n = 3)",2.84 ± 0.17%
same,"Cumulative recovery of radioactivity, Feces","[2]; BDI rat, 0–168 h, male (n = 3)",63.14 ± 3.98%
same,"Cumulative recovery of radioactivity, Total recovery","[2]; BDI rat, 0–168 h, male (n = 3)",90.69 ± 1.16%
same,"Cumulative recovery of radioactivity, Urine","[2]; BDI rat, 0–168 h, male (n = 3)",24.71 ± 4.46%
same,"Cumulative recovery of radioactivity, Cage washing",[2]; [8],3.78 ± 1.84%
same,"Cumulative recovery of radioactivity, Feces",[2]; [8],67.15 ± 5.06%
same,"Cumulative recovery of radioactivity, Total recovery",[2]; [8],91.14% and 91.14 ± 1.07%
same,"Cumulative recovery of radioactivity, Urine",[2]; [8],20.21 ± 5.91%
same,total radioactivity recovered,"[2]; BDI rats, within 48 h post-dose",over 80%
same,unchanged drug recovered in bile,[2]; female rats,4.70%
same,unchanged drug recovered in feces,[2]; female rats,29.80%
same,unchanged drug recovered in urine,[2]; female rats,0.03%
same,unchanged drug recovered in bile,[2]; male rats,2.69%
same,unchanged drug recovered in feces,[2]; male rats,23.20%
same,unchanged drug recovered in urine,[2]; male rats,< 0.01%
"CCc1nc(N)nc(N)c1-c1ccc(Cl)cc1 [Pyrimethamine, reference compound]",IC50,[3],12.5 nM
same,Percentage transported,"[3]; MATE1, compound 1 μM",0.00%
same,Uptake rate,"[3]; MATE1, compound 1 μM",12.5±2.43 pmol/mg protein/min
same,"inhibition at 2 min, 1 µM","[3]; human, pH 8",100%
same,IC50,[4],13.6 nM
same,Percentage transported,"[4]; MATE2-K, compound 1 μM",0.00%
same,Uptake rate,"[4]; MATE2-K, compound 1 μM",7.55±1.58 pmol/mg protein/min
same,"inhibition at 2 min, 1 µM","[4]; human, pH 8",100%
